Our source for the IC50 values is patent publication US20110053897A1 (IRM LLC, priority 2009, published 2011).

In one assay the target is T1, Syk kinase (Homo sapiens, UniProt P43405).
T1 construct: purchased
As to the kind of experiment: Syk kinase inhibition, Caliper LabChip off-chip mobility-shift kinase assay. It counts as biochemical. To be noted: Caliper LabChip assay; read-out: Syk Enzyme IC50. The method in brief: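 Purified Syk pre-incubated 15 min with compound in 100 mM HEPES pH 7.5, 1 mM DTT, 10 mM MgCl2 or MnCl2, 0.002% Brij-35, then 1.5 μM fluorescein peptide and ATP at apparent KM added; 1–1.5 h at room temperature, 4% DMSO, EDTA stop. Microfluidic mobility-shift product/substrate conversion gave % inhibition; IC50 from 12-point series (10–0.00003 μM) by 4-parameter fit.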
For orientation: IC50 means the concentration that inhibits the measured activity by half. As for `[2H]C([2H])([2H])n1ccc2cc(Nc3cc(Cl)ccn3)nc(NC[C@@H]3CCCO3)c2c1=O` [compound 1052], the IC50 is 236 nM.

On to `CC(C)(C)Nc1nc(-c2cnc(N)nc2)cc2ccn(CCCO)c(=O)c12` [compound 915], for which the IC50 came out at 26 nM. Consider `O=c1[nH]ccc2cc(Nc3cnccn3)nc(NC3CCC3)c12` [compound 767], for which the IC50 came out at 3 nM.

For `CC(C)(C)Nc1nc(Nc2cc(C(C)(C)O)ccn2)cc2ccn(CCO)c(=O)c12` [compound 698, 8-(tert-butylamino)-2-(2-hydroxyethyl)-6-(4-(2-hydroxypropan-2-yl)pyridin-2-ylamino)-2,7-naphthyridin-1(2H)-one], the IC50 came to 131 nM. With `O=c1c2c(N[C@H]3CC[C@@H](O)CC3)nc(Nc3cnccn3)cc2ccn1CCF` [compound 999], the IC50 is 10 nM. As for `CC(C)(C)Nc1nc(-c2cnc(N)nc2)cc2ccn(CC(N)=O)c(=O)c12` [compound 663], the IC50 came out at 43 nM.

In the case of `Nc1ncc(-c2cc3ccn(CCO)c(=O)c3c(NC3(CO)CCC3)n2)cn1` [compound 903], the IC50 is 26 nM. The same measure, in the same setting: as for `Nc1nc(Nc2nccc(O)n2)cc2ccn(CCO)c(=O)c12` [compound 812], the figure is 359 nM; as for `CC(C)(C)Nc1nc(Nc2cc(-c3cccnc3)ccn2)cc2ccn(CCO)c(=O)c12` [compound 828], 72 nM; as for `O=c1c2c(NC3CCS(=O)(=O)C3)nc(Nc3cnccn3)cc2ccn1CCO` (stereo not shown) [compound 975], 370 nM.

Take `CCn1ccc2cc(-c3cnc(N)nc3)nc(N[C@H]3CC[C@@H](CO)C3)c2c1=O` [compound 913]: the IC50 amounted to 5 nM.

In the case of `Cc1ccnc(Nc2cc3ccn(C(C)C)c(=O)c3c(N[C@@H](C)CO)n2)c1` [compound 966], the IC50 was 29 nM. As for `COCCNCc1ccnc(Nc2cc3ccn(CCO)c(=O)c3c(NC(C)(C)C)n2)c1` [compound 694], the IC50 was 237 nM. Consider `O=c1c2c(NCC(F)(F)F)nc(Nc3cnccn3)cc2ccn1CCO` [compound 825], for which the IC50 is 22 nM. Consider `CC(C)(C)Nc1nc(Nc2cnccn2)cc2ccn(CCCO)c(=O)c12` [compound 1034], for which the IC50 turned out to be 12 nM. Take `CC(C)(C)Nc1nc(Nc2cc(CO)ccn2)cc2ccn(CC(=O)O)c(=O)c12` [compound 875]: the IC50 was found to be 6 nM.

For the compound `CCn1ccc2cc(Nc3cc(C)ccn3)nc(NC(C)(CO)CO)c2c1=O` [compound 808], the IC50 worked out at 81 nM. Take `Nc1ncc(-c2cc3ccn(CCN4CCOCC4)c(=O)c3c(N[C@H]3CC[C@@H](O)CC3)n2)cn1` [compound 1029]: the IC50 is 72 nM. For `O=c1c2c(N[C@H]3CC[C@@H](O)CC3)nc(Nc3cnccn3)cc2ccn1C1COC1` [compound 1009], the IC50 was found to be 19 nM. On the same count and under the same terms, as for `CC(C)n1ccc2cc(-c3cnc(N)nc3)nc(N[C@H]3CC[C@@H](O)C3)c2c1=O` [compound 1031], the figure is 7 nM; as for `CC1(Nc2nc(Nc3cc(C(O)C(F)(F)F)ccn3)cc3ccn(CC(N)=O)c(=O)c23)CC1` (stereo not shown) [compound 614], 66 nM; as for `COc1ncc(-c2cc(Nc3cc4ccn(CCO)c(=O)c4c(NC(C)(C)C)n3)ncn2)cn1` [compound 637], 60 nM. On to `CC(C)(C)Nc1nc(Nc2cnccn2)cc2ccn(CC(O)CO)c(=O)c12` (stereo not shown) [compound 664, 8-(tert-butylamino)-2-(2,3-dihydroxypropyl)-6-(pyrazin-2-ylamino)-2,7-naphthyridin-1(2H)-one], for which the IC50 is 7 nM. Take `Cc1ccnc(Nc2cc3ccn(CCO)c(=O)c3c(NC3CC3)n2)c1` [compound 817]: the IC50 was found to be 108 nM. On the same count and under the same terms, as for `CC1(Cn2ccc3cc(Nc4cnccn4)nc(NC4CCCC4)c3c2=O)COC1` [compound 762], the figure is 22 nM; as for `N#CCn1ccc2cc(-c3cnc(N)nc3)nc(NC3CCCC3)c2c1=O` [compound 756], 117 nM; as for `[2H]C([2H])([2H])n1ccc2cc(Nc3cc(C)ccn3)nc(N[C@H]3CC[C@H](O)CC3)c2c1=O` [compound 983], 51 nM. On to `CCn1ccc2cc(Nc3cc(C)ccn3)nc(NC3CC=C(C)CC3)c2c1=O` (stereo not shown) [compound 954], for which the IC50 is 754 nM.

For the compound `CCn1ccc2cc(Nc3cc(C)ccn3)nc(N[C@H]3CC[C@H](O)C3)c2c1=O` [compound 945], the IC50 came to 23 nM.

On to `COc1cc(Nc2cc3ccn(CCO)c(=O)c3c(NC(C)(C)C)n2)ncn1` [compound 735], for which the IC50 was 50 nM. Take `N#CCCn1ccc2cc(Nc3cnccn3)nc(N[C@H]3CC[C@@H](O)CC3)c2c1=O` [compound 1002]: the IC50 was 14 nM. In the case of `O=c1c2c(N[C@H]3CC[C@@H](O)CC3)nc(Nc3cnccn3)cc2ccn1CCN1CCOCC1` [compound 994], the concentration for half-maximal inhibition (IC50) is 108 nM.

Staying with this assay, now noted: read-out: Syk Enzyme IC50.
Consider `CC(C)Nc1nc(Nc2ccc(Cl)cn2)cc2cc[nH]c(=O)c12` [compound 560], for which the IC50 turned out to be 611 nM. `CCN1CCN(CCc2ccc(Nc3nc(Nc4cc(C(=O)O)ccn4)cc4cc[nH]c(=O)c34)cc2)CC1` [compound 586]: the IC50 was found to be 226 nM.

Turning to `CCc1ccnc(Nc2cc3cc[nH]c(=O)c3c(Nc3ccc(CCN4CCN(CC)CC4)cc3)n2)c1` [compound 546], the IC50 was determined as 88 nM. Take `CO/N=C(\C)c1cc2cc[nH]c(=O)c2c(Nc2ccc(C3CCNCC3)c(C)c2)n1` [compound 235]: the IC50 was determined as 102 nM.

Turning to `CCn1ccc2cc(Nc3cnccn3)nc(NC[C@@H]3CC[C@](C)(O)C3)c2c1=O` [compound 415], the IC50 was determined as 172 nM.

`[2H]C([2H])([2H])n1ccc2cc(Nc3cnccn3)nc(N[C@H]3CC[C@@H](O)CC3)c2c1=O` [compound 377]: the IC50 is 34 nM. In the case of `CCn1ccc2cc(Nc3cc(C)ccn3)nc(NC(C)C)c2c1=O` [compound 191], the IC50 was determined as 187 nM. On to `COc1cncc(-c2cc3cc[nH]c(=O)c3c(Nc3ccc(CCN4CCN5CCCC5C4)cc3)n2)n1` (stereo not shown) [compound 7], for which the IC50 is 53 nM.

For the compound `COc1cncc(-c2cc3cc[nH]c(=O)c3c(Nc3ccc(C4CCN(C(=O)N5CCNC5=O)CC4)c(C)c3)n2)n1` [compound 114], the IC50 came out at 174 nM. Regarding `COCCn1ccc2cc(Nc3cc(C)ccn3)nc(NC(C)C)c2c1=O` [compound 314], the IC50 worked out at 237 nM. In the case of `COc1cncc(-c2cc3cc[nH]c(=O)c3c(Nc3ccc([C@H]4CC[C@H](N5CCOCC5)CC4)cc3)n2)n1` [compound 56], the IC50 stood at 358 nM. The same measure, in the same setting: the value for `CCOCC(=O)N1CCC(c2ccc(Nc3nc(-c4cncc(OC)n4)cc4cc[nH]c(=O)c34)cc2)CC1` [compound 28] was 115 nM; that for `CCC(C(=O)O)N1CCC(c2ccc(Nc3nc(-c4cncc(OC)n4)cc4cc[nH]c(=O)c34)cc2C)CC1` (stereo not shown) [compound 119] was 5 nM; that for `COCCCc1cc2cc[nH]c(=O)c2c(Nc2ccc(N3CCO[C@H](C)C3)c(C)c2)n1` [compound 239] was 2220 nM. With `Cc1cc(Nc2nc(C(C)C)cc3cc[nH]c(=O)c23)ccc1N1CCO[C@H](C)C1` [compound 226], the IC50 worked out at 1740 nM.

As to `O=c1[nH]ccc2cc(Nc3ccccn3)nc(NCCc3cccnc3)c12` [compound 289], the IC50 was determined as 228 nM. The same measure, in the same setting: as for `CCn1ccc2cc(Nc3cnccn3)nc(N[C@H]3CC[C@@H](O)C3)c2c1=O` [compound 425], the figure is 316 nM; as for `O=c1[nH]ccc2cc(Nc3ccc(CCN4CCOCC4)cn3)nc(Nc3ccc(N4CCOCC4)cc3)c12` [compound 568], 549 nM; as for `Cc1ccc(Nc2cc3cc[nH]c(=O)c3c(Nc3ccc(C4CCN(C5CC5)CC4)c(C)c3)n2)nc1` [compound 249], 1590 nM. As for `CCN1CCN(CCc2ccc(Nc3nc(-c4cnn(C)c4)cc4c(F)c[nH]c(=O)c34)cc2)CC1` [compound 442], the IC50 was 107 nM. Turning to `COc1cncc(-c2cc3cc[nH]c(=O)c3c(Nc3ccc(N4CCC(OC)CC4)cc3)n2)n1` [compound 20], the IC50 was 318 nM. Take `O=c1[nH]ccc2cc(Nc3ccccn3)nc(NCC3CC3)c12` [compound 291]: the IC50 came out at 312 nM. For the compound `Cc1ccnc(Nc2cc3cc[nH]c(=O)c3c(N3CC[C@H](CO)C3)n2)c1` [compound 400], the IC50 came to 897 nM. For the compound `CCn1ccc2cc(Nc3cc(C)ccn3)nc(N[C@@H]3CC[C@H](O)C3)c2c1=O` [compound 426], the IC50 is 70.8 nM.

`CC(=O)N1CCN(CCc2ccc(Nc3nc(Nc4ccc(C)cn4)cc4cc[nH]c(=O)c34)cc2)CC1` [compound 541]: the IC50 was 1120 nM. For `CC1(Nc2nc(Nc3cnccn3)cc3ccn(CCO)c(=O)c23)CCC1` [compound 458], the IC50 amounted to 11.4 nM. Same read-out and setting: the value for `Cc1ccnc(Nc2cc3ccn(CCO)c(=O)c3c(N[C@@H](C)CO)n2)c1` [compound 367] was 13 nM; that for `C[C@@H]1CN([C@H]2CC[C@H](c3ccc(Nc4nc(-c5cncnc5)cc5cc[nH]c(=O)c45)cc3)CC2)CCO1` [compound 93] was 433 nM. Same read-out and setting: the value for `CC(C)CNc1nc(-c2cnc(N)nc2)cc2cc[nH]c(=O)c12` [compound 186] was 178 nM; that for `Cc1cc(Nc2nc(CCO)cc3cc[nH]c(=O)c23)ccc1C1CCN(C2CC2)CC1` [compound 246] was 41 nM. As for `CCCc1cc2cc[nH]c(=O)c2c(Nc2ccc(C3CCN(C4CC4)CC3)c(C)c2)n1` [compound 230], the IC50 was 556 nM.

As for `COc1cncc(-c2cc3cc[nH]c(=O)c3c(Nc3ccc(C4CCN(C(C)C(=O)NC(C)C)CC4)c(C)c3)n2)n1` (stereo not shown) [compound 175], the IC50 amounted to 144 nM. For the compound `COCC(Cl)C(=O)N1CCC(c2ccc(Nc3nc(-c4cncc(OC)n4)cc4cc[nH]c(=O)c34)cc2C)CC1` (stereo not shown) [compound 90], the IC50 came out at 204 nM. With `CCn1ccc2cc(Nc3cnccn3)nc(N[C@H]3CCC[C@H]3O)c2c1=O` [compound 421], the IC50 was determined as 23.6 nM. Regarding `COc1cncc(-c2cc3cc[nH]c(=O)c3c(Nc3ccc(CCN4CC5CNCC5C4)cc3)n2)n1` (stereo not shown) [compound 433], the IC50 was determined as 51 nM.
